# Literature values, collected in patent US20040042990A1, “Composition containing oxidation-sensitive hydrophilic active principle and maleic anhydride copolymer, and use thereof” (L'OREAL, Paris, France, priority 2002, published 2004).
# Tested on: reconstructed skin
structure (smiles),measurement,setting,value
O=C1O[C@H]([C@@H](O)CO)C([O-])=C1OP(=O)([O-])[O-].O=C1O[C@H]([C@@H](O)CO)C([O-])=C1OP(=O)([O-])[O-].[Mg+2].[Mg+2].[Mg+2] [magnesium ascorbyl phosphate],number of fibroblasts in the lattice,reconstructed skin culture medium,significant increase
same,"synthesis of proteins of the extracellular matrix (collagens IV and VII, laminin)","reconstructed skin, in particular at the dermoepidermal junction",significant stimulation
